Test results: ChEMBL document CHEMBL1201862, “PubChem BioAssay data set” (2004)
Active and inactive are the calls of the source.

Key:
[1] = target: Voltage-gated inwardly rectifying potassium channel KCNH2 (Homo sapiens, UniProt Q12809); settings: Potency;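 also: confirmatory quantitative high-throughput screen measuring inhibition of hERG channel activity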
[2] = target: T1, Sentrin-specific protease 6 (Homo sapiens, UniProt Q9GZR1); type: functional;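 also: Luminescence-based dose-response confirmatory assay of SENP6 inhibition, following up an ultra-high-throughput screen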
T1 sequence (Q9GZR1 whole entry): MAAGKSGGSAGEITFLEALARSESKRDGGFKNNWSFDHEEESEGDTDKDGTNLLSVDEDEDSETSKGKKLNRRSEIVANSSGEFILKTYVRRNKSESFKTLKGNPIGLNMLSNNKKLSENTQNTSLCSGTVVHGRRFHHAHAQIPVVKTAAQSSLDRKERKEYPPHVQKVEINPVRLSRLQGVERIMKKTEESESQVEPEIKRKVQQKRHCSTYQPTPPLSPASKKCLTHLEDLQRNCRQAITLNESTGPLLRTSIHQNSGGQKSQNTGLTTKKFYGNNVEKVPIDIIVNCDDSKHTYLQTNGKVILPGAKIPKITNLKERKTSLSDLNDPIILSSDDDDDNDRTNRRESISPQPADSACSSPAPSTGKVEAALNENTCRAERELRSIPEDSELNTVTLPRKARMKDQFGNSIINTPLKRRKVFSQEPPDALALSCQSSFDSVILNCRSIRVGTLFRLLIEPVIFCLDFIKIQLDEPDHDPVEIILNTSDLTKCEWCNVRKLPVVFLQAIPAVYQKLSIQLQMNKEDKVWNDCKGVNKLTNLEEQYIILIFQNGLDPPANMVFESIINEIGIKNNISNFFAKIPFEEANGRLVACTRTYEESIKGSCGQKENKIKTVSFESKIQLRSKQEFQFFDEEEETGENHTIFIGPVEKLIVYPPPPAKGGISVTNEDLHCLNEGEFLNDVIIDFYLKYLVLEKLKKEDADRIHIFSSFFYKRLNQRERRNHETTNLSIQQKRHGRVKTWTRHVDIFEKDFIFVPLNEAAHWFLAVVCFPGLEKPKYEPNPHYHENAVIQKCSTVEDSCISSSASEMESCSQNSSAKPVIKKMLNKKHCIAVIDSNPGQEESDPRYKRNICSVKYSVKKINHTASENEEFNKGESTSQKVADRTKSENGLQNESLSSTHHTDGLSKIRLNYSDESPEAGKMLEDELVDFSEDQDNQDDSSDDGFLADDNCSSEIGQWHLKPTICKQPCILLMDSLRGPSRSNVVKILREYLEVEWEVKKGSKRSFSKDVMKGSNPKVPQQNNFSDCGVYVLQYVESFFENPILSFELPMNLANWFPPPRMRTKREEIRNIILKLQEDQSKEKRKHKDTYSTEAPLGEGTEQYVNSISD

[3] = target: T2, Sentrin-specific protease 7 (Homo sapiens, UniProt Q9BQF6); type: functional;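 also: Luminescence-based dose-response confirmation of ultra-high-throughput screening hits, measuring inhibition of SENP7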
T2 sequence (Q9BQF6 whole entry): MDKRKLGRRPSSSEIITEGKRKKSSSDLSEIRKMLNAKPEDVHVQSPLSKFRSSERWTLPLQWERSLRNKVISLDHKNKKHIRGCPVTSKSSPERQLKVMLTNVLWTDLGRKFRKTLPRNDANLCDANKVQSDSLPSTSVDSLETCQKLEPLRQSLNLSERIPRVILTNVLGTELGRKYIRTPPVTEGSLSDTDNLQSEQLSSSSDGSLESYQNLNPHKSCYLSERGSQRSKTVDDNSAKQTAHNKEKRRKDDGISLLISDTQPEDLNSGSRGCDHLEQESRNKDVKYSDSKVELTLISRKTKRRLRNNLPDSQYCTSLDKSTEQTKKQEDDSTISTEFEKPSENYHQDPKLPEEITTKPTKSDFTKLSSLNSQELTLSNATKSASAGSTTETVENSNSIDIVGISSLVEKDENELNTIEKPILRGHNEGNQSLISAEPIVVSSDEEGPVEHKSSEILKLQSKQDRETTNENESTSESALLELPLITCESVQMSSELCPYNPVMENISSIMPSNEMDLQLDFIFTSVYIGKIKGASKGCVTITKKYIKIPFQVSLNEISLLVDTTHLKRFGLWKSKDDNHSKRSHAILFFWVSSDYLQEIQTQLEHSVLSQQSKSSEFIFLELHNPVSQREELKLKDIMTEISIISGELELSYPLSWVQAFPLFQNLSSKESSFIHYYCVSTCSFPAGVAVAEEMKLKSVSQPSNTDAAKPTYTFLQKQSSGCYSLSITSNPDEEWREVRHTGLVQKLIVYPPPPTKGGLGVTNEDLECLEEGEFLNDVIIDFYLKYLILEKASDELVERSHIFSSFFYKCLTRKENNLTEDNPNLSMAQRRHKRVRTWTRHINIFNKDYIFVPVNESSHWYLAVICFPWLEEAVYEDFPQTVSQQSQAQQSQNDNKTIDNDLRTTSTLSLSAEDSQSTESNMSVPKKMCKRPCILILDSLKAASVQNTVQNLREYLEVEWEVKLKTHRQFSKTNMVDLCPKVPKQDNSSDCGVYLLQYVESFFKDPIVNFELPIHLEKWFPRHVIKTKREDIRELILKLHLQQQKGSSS

[4] = Luminescence Cell-Based Dose Confirmation HTS to Identify Activators of 5'UTR Stem-Loop Driven Alpha-Synuclein mRNA Translation in H4 Neuroglioblastoma Cells. [Related pubchem assays: 1829 (Project Summary), 1814 (Primary HTS)]; type: functional
[5] = target: T3, Sentrin-specific protease 8 (Homo sapiens, UniProt Q96LD8); type: functional;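 also: luminescence read-out of SENP8 inhibition, dose-response confirmation following an ultra-high-throughput screen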
T3 sequence (Q96LD8 whole entry): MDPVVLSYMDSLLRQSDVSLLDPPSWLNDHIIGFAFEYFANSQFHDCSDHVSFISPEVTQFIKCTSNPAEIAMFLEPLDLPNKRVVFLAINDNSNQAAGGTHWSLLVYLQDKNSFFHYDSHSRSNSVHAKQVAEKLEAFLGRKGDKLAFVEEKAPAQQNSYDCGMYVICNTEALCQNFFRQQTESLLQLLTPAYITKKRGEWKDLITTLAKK

[6] = target: T4, Caspase-3 (Homo sapiens, UniProt P42574); type: functional;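 also: Dose-response selectivity test against caspase-3 for candidate inhibitors of sentrin-specific proteases (SENPs)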
T4 sequence (P42574 whole entry): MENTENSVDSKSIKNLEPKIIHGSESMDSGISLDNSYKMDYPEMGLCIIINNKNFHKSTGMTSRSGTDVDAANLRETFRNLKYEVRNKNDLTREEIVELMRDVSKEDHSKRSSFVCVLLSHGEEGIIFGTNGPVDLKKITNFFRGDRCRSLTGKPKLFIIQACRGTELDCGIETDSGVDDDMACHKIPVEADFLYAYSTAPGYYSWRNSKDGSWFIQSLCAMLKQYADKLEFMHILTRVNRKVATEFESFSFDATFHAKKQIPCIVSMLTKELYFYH

[7] = system: H4; test: Luminescence Cell-Based Dose Response HTS to Identify Activators of 5'UTR Stem-Loop Driven Prion Protein mRNA Translation in H4 Neuroglioblastoma Cells. [Related pubchem assays: 1829 (Project Summary), 1814 (Primary HTS)]; type: functional; settings: Homo sapiens
[8] = target: Voltage-dependent T-type calcium channel subunit alpha-1H (Homo sapiens, UniProt O95180); type: functional;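 also: channel activity triggered by adding a high calcium stimulation buffer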
Voltage-dependent T-type calcium channel subunit alpha-1H, sequence (O95180 whole entry): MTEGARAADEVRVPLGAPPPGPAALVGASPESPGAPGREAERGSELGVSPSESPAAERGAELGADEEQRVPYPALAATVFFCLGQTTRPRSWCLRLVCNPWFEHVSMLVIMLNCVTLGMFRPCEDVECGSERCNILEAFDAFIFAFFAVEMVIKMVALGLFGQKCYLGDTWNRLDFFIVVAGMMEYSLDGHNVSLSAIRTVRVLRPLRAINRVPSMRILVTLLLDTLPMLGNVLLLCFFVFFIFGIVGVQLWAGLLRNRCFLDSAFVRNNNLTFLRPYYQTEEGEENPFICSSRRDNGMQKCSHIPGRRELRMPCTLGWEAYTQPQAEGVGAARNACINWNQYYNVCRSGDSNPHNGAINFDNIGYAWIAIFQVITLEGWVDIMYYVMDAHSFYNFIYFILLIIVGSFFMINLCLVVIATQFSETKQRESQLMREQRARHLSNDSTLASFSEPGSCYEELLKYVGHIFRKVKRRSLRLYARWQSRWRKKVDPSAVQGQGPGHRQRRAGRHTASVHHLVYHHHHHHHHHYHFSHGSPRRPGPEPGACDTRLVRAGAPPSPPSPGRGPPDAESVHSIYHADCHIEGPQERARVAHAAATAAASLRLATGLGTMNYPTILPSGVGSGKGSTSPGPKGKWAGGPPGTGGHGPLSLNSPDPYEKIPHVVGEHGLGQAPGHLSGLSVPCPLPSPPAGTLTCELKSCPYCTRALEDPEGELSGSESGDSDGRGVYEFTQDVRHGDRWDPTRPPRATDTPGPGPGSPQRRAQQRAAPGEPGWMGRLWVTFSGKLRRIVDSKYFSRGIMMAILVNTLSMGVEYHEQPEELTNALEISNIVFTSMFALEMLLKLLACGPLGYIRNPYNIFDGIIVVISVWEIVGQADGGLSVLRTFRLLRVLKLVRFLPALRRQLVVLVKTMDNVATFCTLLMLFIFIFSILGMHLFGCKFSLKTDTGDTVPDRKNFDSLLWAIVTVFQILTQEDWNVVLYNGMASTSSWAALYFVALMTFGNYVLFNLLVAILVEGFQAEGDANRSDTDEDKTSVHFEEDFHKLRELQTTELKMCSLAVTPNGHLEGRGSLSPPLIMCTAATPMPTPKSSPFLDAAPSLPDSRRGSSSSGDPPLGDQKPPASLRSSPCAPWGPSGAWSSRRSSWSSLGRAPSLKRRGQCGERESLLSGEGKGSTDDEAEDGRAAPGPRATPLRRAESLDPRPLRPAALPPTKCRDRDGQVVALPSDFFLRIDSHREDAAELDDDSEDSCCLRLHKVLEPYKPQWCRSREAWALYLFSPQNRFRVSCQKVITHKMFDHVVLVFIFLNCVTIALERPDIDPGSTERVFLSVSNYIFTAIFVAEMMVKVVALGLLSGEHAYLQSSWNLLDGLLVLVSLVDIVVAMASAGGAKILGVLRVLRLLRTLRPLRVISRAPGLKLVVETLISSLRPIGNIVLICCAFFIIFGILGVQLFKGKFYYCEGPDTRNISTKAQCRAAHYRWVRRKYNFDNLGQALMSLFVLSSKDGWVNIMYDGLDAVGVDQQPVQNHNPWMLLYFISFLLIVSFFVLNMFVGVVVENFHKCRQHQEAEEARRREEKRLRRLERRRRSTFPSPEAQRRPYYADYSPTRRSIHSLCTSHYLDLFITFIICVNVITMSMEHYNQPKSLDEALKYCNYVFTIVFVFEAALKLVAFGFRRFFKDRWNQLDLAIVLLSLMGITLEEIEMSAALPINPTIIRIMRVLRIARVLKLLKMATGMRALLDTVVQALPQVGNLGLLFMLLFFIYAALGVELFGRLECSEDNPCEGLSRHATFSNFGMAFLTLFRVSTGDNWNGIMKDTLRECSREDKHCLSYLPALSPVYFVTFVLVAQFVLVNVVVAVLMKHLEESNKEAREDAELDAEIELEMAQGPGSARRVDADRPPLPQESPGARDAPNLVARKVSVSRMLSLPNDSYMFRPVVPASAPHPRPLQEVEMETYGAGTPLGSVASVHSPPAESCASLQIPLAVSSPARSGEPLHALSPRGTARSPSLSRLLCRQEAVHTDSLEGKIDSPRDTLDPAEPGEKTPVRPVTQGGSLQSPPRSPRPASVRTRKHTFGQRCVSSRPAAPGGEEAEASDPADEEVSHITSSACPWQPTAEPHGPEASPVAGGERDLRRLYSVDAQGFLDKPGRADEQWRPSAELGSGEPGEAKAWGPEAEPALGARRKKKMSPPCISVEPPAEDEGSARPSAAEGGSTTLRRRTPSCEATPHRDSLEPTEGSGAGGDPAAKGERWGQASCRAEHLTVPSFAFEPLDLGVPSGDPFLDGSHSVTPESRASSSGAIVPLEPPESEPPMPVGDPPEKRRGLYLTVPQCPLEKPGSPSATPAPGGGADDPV

[9] = Luminescence Cell-Based Dose Response HTS to Identify Activators of Luciferase Translation or Activity in H4 […] Cells. [Related pubchem assays: 1829 (Project Summary), 1814 (Primary HTS)]; type: functional
[10] = target: T5, Serine/threonine-protein kinase D3 (Homo sapiens, UniProt O94806); type: functional;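 also: determined within a kinase panel screen, with PRKCN as the panel member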
T5 sequence (O94806 whole entry): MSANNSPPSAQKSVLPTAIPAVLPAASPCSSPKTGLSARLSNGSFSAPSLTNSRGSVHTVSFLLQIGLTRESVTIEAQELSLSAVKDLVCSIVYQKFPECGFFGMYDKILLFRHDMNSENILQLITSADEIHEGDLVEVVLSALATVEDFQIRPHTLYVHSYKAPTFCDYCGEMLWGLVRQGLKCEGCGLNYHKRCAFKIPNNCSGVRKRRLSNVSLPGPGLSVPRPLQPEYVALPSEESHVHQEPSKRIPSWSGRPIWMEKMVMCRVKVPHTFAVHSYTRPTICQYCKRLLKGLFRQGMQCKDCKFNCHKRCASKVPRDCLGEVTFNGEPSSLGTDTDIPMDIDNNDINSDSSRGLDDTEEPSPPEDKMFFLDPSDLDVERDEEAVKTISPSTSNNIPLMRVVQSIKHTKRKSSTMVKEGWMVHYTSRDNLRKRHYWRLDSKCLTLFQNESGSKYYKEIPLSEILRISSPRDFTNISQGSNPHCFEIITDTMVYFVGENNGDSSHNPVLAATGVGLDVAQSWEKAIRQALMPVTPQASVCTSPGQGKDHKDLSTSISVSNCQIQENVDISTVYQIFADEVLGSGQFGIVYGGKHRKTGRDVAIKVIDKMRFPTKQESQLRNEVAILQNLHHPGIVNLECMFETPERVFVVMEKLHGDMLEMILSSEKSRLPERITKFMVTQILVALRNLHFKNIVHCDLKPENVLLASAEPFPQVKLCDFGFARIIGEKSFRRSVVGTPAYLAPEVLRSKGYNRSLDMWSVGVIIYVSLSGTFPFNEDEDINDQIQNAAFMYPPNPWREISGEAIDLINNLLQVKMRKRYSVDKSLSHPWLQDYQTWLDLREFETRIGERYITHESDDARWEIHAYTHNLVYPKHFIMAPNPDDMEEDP

[11] = target: Hepatocyte growth factor receptor (Homo sapiens, UniProt P08581); type: functional;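 also: kinase panel profiling across the kinome, with MET as the panel member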
[12] = target: DNA dC->dU-editing enzyme APOBEC-3A (Homo sapiens, UniProt P31941); test: Dose Response confirmation of small molecule APOBEC3A DNA Deaminase Inhibitors via a fluorescence-based single-stranded DNA deaminase assay. [Related pubchem assays (depositor defined):AID493011, AID493024]; type: functional
DNA dC->dU-editing enzyme APOBEC-3A, sequence (P31941 whole entry): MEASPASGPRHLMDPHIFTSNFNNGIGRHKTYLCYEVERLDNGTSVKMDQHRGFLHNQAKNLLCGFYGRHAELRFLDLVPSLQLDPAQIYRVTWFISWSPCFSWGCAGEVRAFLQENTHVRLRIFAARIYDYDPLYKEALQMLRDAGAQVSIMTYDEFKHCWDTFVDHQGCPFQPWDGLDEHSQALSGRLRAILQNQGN

[13] = target: DNA (cytosine-5)-methyltransferase 1 (Homo sapiens, UniProt P26358); test: DNMT1 methyltransferase inhibitors, confirmation, biochemical, fluorescent molecular beacon (AID 602386); type: functional
DNA (cytosine-5)-methyltransferase 1, sequence (P26358 whole entry): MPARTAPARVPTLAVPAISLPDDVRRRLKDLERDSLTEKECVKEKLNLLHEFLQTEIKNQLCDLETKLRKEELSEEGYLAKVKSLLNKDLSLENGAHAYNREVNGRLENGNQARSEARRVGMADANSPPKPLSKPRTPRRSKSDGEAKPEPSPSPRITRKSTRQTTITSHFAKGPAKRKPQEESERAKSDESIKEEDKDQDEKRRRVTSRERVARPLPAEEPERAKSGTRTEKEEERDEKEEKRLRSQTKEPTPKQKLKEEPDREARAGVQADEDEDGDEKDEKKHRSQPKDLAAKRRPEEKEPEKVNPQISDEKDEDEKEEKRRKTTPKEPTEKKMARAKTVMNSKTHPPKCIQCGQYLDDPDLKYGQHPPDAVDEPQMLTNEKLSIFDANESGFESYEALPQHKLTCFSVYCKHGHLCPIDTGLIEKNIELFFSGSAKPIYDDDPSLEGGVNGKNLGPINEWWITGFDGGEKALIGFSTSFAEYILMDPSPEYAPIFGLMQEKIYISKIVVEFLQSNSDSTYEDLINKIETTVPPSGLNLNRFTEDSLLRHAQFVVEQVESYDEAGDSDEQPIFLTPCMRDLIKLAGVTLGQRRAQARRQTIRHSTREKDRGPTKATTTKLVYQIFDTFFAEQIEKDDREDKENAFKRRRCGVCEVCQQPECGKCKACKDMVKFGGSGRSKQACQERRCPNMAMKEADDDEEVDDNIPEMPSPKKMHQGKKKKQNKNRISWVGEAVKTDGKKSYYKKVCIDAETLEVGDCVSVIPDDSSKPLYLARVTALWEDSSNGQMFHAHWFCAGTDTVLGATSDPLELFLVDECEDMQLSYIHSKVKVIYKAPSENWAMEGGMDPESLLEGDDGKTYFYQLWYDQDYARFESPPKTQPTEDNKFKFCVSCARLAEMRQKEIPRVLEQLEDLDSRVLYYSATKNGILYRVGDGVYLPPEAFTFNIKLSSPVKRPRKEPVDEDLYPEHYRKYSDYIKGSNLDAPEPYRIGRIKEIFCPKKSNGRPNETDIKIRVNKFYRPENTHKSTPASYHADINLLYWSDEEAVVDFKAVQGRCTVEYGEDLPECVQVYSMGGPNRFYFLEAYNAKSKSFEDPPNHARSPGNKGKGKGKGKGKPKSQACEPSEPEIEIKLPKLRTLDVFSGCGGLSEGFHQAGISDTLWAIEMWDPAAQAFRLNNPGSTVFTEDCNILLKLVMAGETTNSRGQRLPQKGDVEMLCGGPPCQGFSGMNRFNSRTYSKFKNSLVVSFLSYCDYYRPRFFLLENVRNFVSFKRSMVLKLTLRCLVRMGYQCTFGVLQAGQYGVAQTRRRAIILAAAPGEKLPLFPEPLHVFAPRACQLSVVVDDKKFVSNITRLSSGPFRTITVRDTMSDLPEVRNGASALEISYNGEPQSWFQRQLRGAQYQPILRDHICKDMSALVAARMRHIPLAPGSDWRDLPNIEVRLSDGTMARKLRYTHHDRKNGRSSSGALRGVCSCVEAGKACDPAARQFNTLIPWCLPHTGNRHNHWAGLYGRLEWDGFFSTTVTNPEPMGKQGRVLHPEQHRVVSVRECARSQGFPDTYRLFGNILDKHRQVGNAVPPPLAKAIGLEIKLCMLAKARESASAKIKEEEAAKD

[14] = target: DNA dC->dU-editing enzyme APOBEC-3G (Homo sapiens, UniProt Q9HC16); type: functional;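 also: Dose-response counterscreen measuring inhibition of APOBEC3G DNA deaminase activity, run while confirming APOBEC3A inhibitors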
DNA dC->dU-editing enzyme APOBEC-3G, sequence (Q9HC16 whole entry, the tested form may be a part): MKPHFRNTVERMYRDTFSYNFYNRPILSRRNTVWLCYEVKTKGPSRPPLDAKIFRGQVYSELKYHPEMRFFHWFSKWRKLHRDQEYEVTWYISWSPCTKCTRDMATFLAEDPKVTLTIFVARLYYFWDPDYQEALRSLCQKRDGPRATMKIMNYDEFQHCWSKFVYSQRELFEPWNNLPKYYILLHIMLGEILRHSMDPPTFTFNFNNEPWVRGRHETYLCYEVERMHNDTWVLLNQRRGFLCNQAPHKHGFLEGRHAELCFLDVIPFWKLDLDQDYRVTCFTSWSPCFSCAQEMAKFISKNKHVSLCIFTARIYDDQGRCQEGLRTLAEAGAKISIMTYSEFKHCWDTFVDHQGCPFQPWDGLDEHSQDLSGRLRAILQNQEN

[15] = target: T6, Carboxy-terminal domain RNA polymerase II polypeptide A small phosphatase 1 (Homo sapiens, UniProt Q9GZU7); test: inhibitors of CTDSP1, concentration-response testing, biochemical assay, absorbance-based, actives from ultra-high-throughput screening (AID 540297); type: functional
T6 sequence (Q9GZU7 whole entry): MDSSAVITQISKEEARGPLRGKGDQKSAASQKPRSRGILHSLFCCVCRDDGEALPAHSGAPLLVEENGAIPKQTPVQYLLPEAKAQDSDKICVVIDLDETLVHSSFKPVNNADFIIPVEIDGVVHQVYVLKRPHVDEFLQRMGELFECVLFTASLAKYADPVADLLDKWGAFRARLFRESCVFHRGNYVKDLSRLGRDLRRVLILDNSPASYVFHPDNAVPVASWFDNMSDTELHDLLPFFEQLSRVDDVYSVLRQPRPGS

C=CCN1CC[C@]23CCCCC2[C@H]1Cc1ccc(O)cc13 (stereo not given in full)
AC50 [1]: 2.24 µM (inconclusive)

Cc1nnc(SCCC(=O)Nc2nc(-c3ccccc3)ns2)s1
IC50 [2]: 21.9 µM (active)
IC50 [3]: 13.1 µM (active)
EC50 [4]: > 120 µM (not active)
IC50 [5]: 24.1 µM (active)
IC50 [6]: 44.1 µM (active)
EC50 [7]: 8.61 µM (active)
EC50 [8]: 2.54 µM (active)
EC50 [9]: 15 µM (active)

CCCC(=O)Nc1cccc(-c2nc(Nc3ccc4[nH]ncc4c3)c3cc(OCCOC)ccc3n2)c1
Ki [10]: 1.26 µM (active)
Ki [11]: 2.51 µM (active)

O=C(COC(=O)c1cc2c(s1)CCC2)Nc1ccc(F)cc1
IC50 [12]: 19.6 µM (active)
IC50 [13]: 10.3 µM (active)
IC50 [14]: 34.6 µM (active)
IC50 [15]: 4.34 µM (active)
